We go through 34 compounds from patent US20200031778A1, “NOVEL 5-SUBSTITUTED IMIDAZOLYLMETHYL DERIVATIVES” (Bayer CropScience Aktiengesellschaft, priority 2016, published 2020).

Broadly, the chromatographic logP is a lipophilicity value derived from retention on a column. Read a high chromatographic logP as higher lipophilicity.

The nature of one series: Log P by HPLC on reversed phase columns (EEC directive 79/831 Annex V.A8; methods [a], [b], [c]). Format: physicochemical.
Conditions: not given
In short, it runs like this:
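Log P derived from retention times, interpolated linearly between bracketing straight-chain alkan-2-ones (3–16 carbons) of known Log P. Eluents ran acetonitrile 10% to 95% against water with 0.1% formic acid ([a], acidic), 0.001 M ammonium acetate ([b], neutral) or 0.1% phosphoric acid ([c], acidic); UV read-out.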
For the compound `C[Si](C)(C)C#CC(O)(Cn1cncc1C(F)(F)F)C1(Cl)CC1` (stereo not shown) [I-607], the LogP is 3.52^[a]. Still for that read-out and setting: then `CC(O)(Cn1cncc1Cl)c1ccc(Oc2ccc(Br)cc2)cc1C(F)(F)F` (stereo not shown) [I-169], with 2.90^[a]; and `NC(=S)c1cncn1CC(O)(CC1CC1)c1ccc(F)cc1F` (stereo not shown) [I-484], with 1.53^[a].

In the case of `N#Cc1cncn1CC(O)(CC1CC1)c1cc(F)c(F)c(Br)c1` (stereo not shown) [I-494], the LogP is 2.74^[a]. As to `OC(Cn1cncc1Cl)c1ccc(Oc2ccc(Cl)nc2)cc1C(F)(F)F` (stereo not shown) [I-19], the LogP is 2.14^[a].

Take `CC(O)(Cn1cncc1C#N)c1cnc(Oc2ccc(C(F)F)cc2)cc1C(F)(F)F` (stereo not shown) [I-234]: the LogP is 2.94^[a]. Still for that read-out and setting: then `N#Cc1cncn1CC(O)(c1c(F)ccc(Cl)c1F)C1(Cl)CC1` (stereo not shown) [I-622], with 2.47^[a]; and `COC(Cn1cncc1C#N)c1ccc(Oc2ccc(Cl)cc2)cc1C(F)F` (stereo not shown) [I-74], with 3.76^[a].

For the compound `CC(C)(C)C(O)(Cn1cncc1C#N)c1cc(Cl)c(Cl)c(Cl)c1` (stereo not shown) [I-546], the LogP is 3.59^[a].

With `CC(C)(C)CC(O)(Cn1cncc1C#N)c1ccc(F)cc1F` (stereo not shown) [I-238], the LogP was 3.06^[a]. As for `OC(Cn1cncc1Br)c1ccc(Oc2ccc(Cl)cc2)cc1C(F)(F)F` (stereo not shown) [I-29], the LogP is 2.84^[a]. As for `COc1ccc(C(O)(CC2CC2)Cn2cncc2C#N)c(Cl)n1` (stereo not shown) [I-548], the LogP is 2.10^[a]. On the same count and under the same terms, then `N#Cc1cncn1CC(O)(c1ccc(C2CC2)cc1Cl)C1(Cl)CC1` (stereo not shown) [I-332], with 2.88^[a]. Regarding `COC(Cn1cncc1C#N)c1ccc(Oc2ccccc2)cc1F` (stereo not shown) [I-100], the LogP was 3.23^[a]. On the same count and under the same terms, then `N#Cc1cncn1CC(O)(c1ccc(Oc2ccc(Cl)cc2)cc1Cl)C1(F)CC1` (stereo not shown) [I-390], with 3.64^[a]; and `N#Cc1cncn1CC(O)(c1cccc(F)c1Cl)C1(F)CC1` (stereo not shown) [I-555], with 2.12^[a]; and `C=CCOC(Cn1cncc1C#N)c1ccc(Oc2ccc(Br)cc2)cc1C(F)(F)F` (stereo not shown) [I-89], with 4.69^[a].

In the case of `N#Cc1cncn1CC(O)(c1cc(F)c(Cl)cc1F)C1(Cl)CC1` (stereo not shown) [I-583], the LogP is 2.66^[a]. Take `CCCCC(O)(Cn1cncc1C#N)c1ccccc1Cl` (stereo not shown) [I-282]: the LogP was 2.80^[a]. Consider `CC(O)(Cn1cncc1Cl)c1ccc(Oc2ccc(Cl)cc2)cc1` (stereo not shown) [I-164], for which the LogP is 2.32^[a].

With `N#Cc1cncn1CC(O)(c1ccc(Br)cc1Cl)C1(F)CC1` (stereo not shown) [I-376], the LogP was 2.76^[a]. `N#Cc1cncn1CC(O)(c1ccc(Cl)cc1F)C1CCC1` (stereo not shown) [I-448]: the LogP was 2.86^[a]. On the same count and under the same terms, with `N#Cc1cncn1CC(O)(c1cc(F)cc(Cl)c1F)C1(F)CC1` (stereo not shown) [I-613] the figure was 2.29^[a]. `CC(O)(Cn1cncc1C#N)c1ccc(Oc2ccc(C(F)(F)F)nc2)nc1C(F)(F)F` (stereo not shown) [I-294]: the LogP was 2.76^[a].

As for `N#Cc1cncn1CC(O)(c1ccc(Cl)c(Cl)c1)C1(F)CC1` (stereo not shown) [I-487], the LogP was 2.51^[a]. On to `N#Cc1cncn1CC(O)c1ccc(Oc2ccccc2)cc1Cl` (stereo not shown) [I-76], for which the LogP is 2.70^[a]. Turning to `N#Cc1cncn1CC(O)(CCCC1CCCCC1)C1(F)CC1` (stereo not shown) [I-672], the LogP was 3.71^[a]. Same read-out and setting: with `OC(Cn1cncc1Cl)c1ccc(Oc2ccc(Cl)cc2)cc1Br` (stereo not shown) [I-23] the figure was 2.54^[a]; with `N#Cc1cncn1CC(O)(c1ccc(C#CC2CC2)cc1F)C1(Cl)CC1` (stereo not shown) [I-651], 3.11^[a]. Consider `CN(C)C(=O)OC(Cn1cncc1C#N)c1ccc(Oc2ccc(Br)cc2)cc1C(F)(F)F` (stereo not shown) [I-92], for which the LogP was 3.85^[a]. For the compound `N#Cc1cncn1CC(O)(c1ccc(C(F)(F)F)cc1Cl)C1CC1` (stereo not shown) [I-418], the LogP is 2.98^[a].

Staying with this series, now noted: reversed phase HPLC column; method [a]: LC-UV, acidic range, 0.1% formic acid in water and acetonitrile as eluent (linear gradient from 10% to 95% acetonitrile).
For the compound `O=Cc1ccc(Oc2ccc(C(=O)Cn3cncc3F)c(Cl)n2)cc1` [IX-85], the chromatographic logP turned out to be 1.59. Still for that read-out and setting: with `O=C(Cn1cncc1Br)c1ccc(F)cc1F` [IX-121] the figure was 1.32; with `O=C(Cn1cncc1Br)c1ccc(Oc2ccc(I)cc2)cc1F` [IX-48], 3.19.
